Assay results: patent US20090104335A1, “Healthy Food Product” (priority 2006, published 2009)

Test: Effect of peptides on incorporation of cholesterol (NBD-cholesterol) into mixed micelles
Conditions: peptides 1 mg/ml, BA-mix in PBS pH 6.5, micelles without peptide = 100%
Procedure: To form mixed micelles in vitro, 0.1 mM lecithin, 0.05 mM monoolein, 0.1 mM oleic acid and 80 μM cholesterol are mixed in a test tube and dried under a stream of N2. After drying, a 2 mM bile acid mix (BA-mix) in PBS pH 6.5 is added to this lipid mixture. Fluorescent labelled cholesterol (NBD-cholesterol) is used to monitor the incorporation of cholesterol into the mixed micelles.
For testing, peptides (1 mg/ml) are added to the BA-mix and then mixed with lipid-mixtures as described. The whole mixture is vortexed for 15 seconds, followed by an ultrasonic treatment in a waterbath for 30 minutes. From this mixture a sample is taken to measure total NBD-cholesterol concentration. The remaining micelle solution is centrifuged in a table-top ultracentrifuge at 50.000 g for 30 minutes at room temperature.
After centrifugation, samples from the supernatant are taken for the determination of solubilized NBD-cholesterol, which indicates the amount of cholesterol incorporated into mixed micelles. The pellet containing crystallised cholesterol is discarded. NBD-cholesterol is measured at 375/465 nm using a fluorescence plate reader.
Mixed micelle mixtures containing no peptides are used as control (100%). For each example the percentage of incorporated Cholesterol is calculated by dividing the amount of incorporated cholesterol for the tested composition by the amount of incorporated cholesterol in the control sample.

| Substance | Incorporated CH (% control = 80 μM cholesterol) (Table 3, effect of charge) [% control] | Incorporated CH (% control = 80 μM cholesterol) (Table 4, effect of length) [% control] |
| --- | --- | --- |
| RRRRRR | 14.8 | 10.3 |
| DDDDDD [reference compound] | 136.8 |  |
| KKKKKK | 19.9 |  |
| RRRRRRRR [octa-peptide RRRRRRRR, net charge +8] |  | 8.8 |
| RARWRY | 19.3 |  |
| RRRR |  | 32.8 |
| VEWEME [reference compound] | 68.4 |  |
| VRWRMR | 26.2 |  |
| EAEWEY [reference compound] | 81.3 |  |
